pIC50: −log10 of the molar value. Read-outs that look alike come from different tables or passages of the source.
Experiments:
[1] = target: PDGFRβ (Rattus norvegicus (Rat), UniProt Q05030); experiment: PDGFRβ Cellular Assay (PDGFRb P-Y751 HTRF in A10 cells stimulated with PDGF-BB); format: cell-based
Summary of the method: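 Rat A10 cells, plated overnight, were treated with compound for 3 hours, then stimulated with PDGF-BB (working stock 100 ng/mL in 10% FBS medium). After lysis, PDGFRβ P-Y751 was detected by HTRF.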

[2] = target: VEGFR2, unphosphorylated (Homo sapiens (Human), UniProt P35968); experiment: VEGFR ADP GLO Assay; format: biochemical
VEGFR2, unphosphorylated, sequence (P35968 20-1356): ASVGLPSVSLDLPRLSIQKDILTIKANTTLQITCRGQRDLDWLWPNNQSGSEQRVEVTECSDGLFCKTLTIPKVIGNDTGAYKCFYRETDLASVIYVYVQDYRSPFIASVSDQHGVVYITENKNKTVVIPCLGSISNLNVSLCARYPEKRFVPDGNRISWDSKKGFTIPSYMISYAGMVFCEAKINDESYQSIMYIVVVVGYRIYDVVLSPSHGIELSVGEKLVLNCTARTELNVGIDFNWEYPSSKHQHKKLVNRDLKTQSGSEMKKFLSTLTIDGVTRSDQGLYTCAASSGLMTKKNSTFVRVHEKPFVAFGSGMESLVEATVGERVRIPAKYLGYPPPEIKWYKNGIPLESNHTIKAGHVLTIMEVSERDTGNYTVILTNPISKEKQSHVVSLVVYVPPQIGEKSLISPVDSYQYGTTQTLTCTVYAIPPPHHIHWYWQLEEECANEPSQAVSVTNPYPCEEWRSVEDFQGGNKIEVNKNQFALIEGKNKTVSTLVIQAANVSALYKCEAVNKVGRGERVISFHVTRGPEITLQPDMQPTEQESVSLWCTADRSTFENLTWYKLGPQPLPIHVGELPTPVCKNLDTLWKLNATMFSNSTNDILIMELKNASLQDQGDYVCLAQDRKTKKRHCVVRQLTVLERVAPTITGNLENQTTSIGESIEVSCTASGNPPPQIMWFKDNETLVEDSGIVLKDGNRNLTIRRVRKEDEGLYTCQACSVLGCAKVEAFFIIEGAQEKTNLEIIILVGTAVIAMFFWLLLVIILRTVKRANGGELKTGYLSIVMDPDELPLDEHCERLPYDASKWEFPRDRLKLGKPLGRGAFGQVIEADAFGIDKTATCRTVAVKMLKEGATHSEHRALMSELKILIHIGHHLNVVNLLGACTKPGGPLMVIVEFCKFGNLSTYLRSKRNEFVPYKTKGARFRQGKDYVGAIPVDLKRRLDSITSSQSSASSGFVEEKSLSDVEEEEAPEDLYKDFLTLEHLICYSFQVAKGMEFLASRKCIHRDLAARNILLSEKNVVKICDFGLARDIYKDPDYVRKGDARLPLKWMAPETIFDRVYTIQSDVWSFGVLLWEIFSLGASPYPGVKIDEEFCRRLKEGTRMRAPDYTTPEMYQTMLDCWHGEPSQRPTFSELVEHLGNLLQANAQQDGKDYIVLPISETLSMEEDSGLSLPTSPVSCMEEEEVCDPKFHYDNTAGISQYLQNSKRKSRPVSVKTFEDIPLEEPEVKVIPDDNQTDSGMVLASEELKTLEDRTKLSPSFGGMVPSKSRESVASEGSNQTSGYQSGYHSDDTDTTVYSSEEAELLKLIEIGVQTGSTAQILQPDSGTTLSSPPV

PDGFRβ, sequence (Q05030 32-1097): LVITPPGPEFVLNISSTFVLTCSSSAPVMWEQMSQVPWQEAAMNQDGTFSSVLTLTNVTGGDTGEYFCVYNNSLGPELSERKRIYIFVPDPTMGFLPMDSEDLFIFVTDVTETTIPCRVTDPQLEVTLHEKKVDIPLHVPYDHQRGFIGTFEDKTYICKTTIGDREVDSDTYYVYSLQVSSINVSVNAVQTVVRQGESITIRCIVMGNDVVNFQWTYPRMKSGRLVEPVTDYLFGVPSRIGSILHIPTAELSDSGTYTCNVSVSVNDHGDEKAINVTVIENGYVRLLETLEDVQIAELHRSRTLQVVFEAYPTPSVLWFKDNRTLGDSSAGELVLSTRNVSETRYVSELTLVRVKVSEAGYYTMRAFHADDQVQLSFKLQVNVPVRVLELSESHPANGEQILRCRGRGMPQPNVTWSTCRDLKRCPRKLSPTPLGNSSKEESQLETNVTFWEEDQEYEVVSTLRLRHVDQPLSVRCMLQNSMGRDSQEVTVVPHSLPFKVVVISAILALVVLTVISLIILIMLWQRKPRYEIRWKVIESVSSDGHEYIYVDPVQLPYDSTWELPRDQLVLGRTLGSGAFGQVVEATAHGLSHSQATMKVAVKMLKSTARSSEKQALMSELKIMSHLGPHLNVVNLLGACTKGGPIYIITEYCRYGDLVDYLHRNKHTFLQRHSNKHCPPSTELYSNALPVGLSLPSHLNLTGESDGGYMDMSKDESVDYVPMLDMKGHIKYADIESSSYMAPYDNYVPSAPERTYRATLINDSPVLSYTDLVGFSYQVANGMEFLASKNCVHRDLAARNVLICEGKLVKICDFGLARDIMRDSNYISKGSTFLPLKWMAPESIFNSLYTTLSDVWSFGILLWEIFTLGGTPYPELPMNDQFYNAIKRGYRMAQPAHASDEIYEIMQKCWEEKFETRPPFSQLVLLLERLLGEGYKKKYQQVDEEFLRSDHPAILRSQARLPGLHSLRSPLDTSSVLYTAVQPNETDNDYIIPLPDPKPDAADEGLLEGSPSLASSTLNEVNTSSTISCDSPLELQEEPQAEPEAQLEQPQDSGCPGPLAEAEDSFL

Structure (SMILES) | pIC50 ([1]; read-out: PDGFR Cellular IC50) | pIC50 [2] | pIC50 ([1]; PDGFR Cellular IC50)
Cc1ncc(NC(=O)CN2CC(C)(C)C2)cc1NC(=O)c1cnn2cc(-c3cnn4c3OCCC4)sc12 [Example 39, 2-(6,7-dihydro-5H-pyrazolo[5,1-b][1,3]oxazin-3-yl)-N-(5-(2-(3,3-dimethylazetidin-1-yl)acetamido)-2-methylpyridin-3-yl)pyrazolo[5,1-b]thiazole-7-carboxamide] | 8.70 | 5.69 | 
Cc1ncc(NC(=O)CN2CC(C)(C)C2)cc1NC(=O)c1cnn2cc(-c3cnn(C(F)F)c3)sc12 [Example 428, 2-(1-(difluoromethyl)-1H-pyrazol-4-yl)-N-(5-(2-(3,3-dimethylazetidin-1-yl)acetamido)-2-methylpyridin-3-yl)pyrazolo[5,1-b]thiazole-7-carboxamide] | 8.10 | < 5.12 | 
Cc1ncc(NC(=O)CN2CCC[C@@H]2C)cc1NC(=O)c1cnn2cc(-c3cnn4c3CCC4)sc12 [Example 416, (S)-2-(5,6-dihydro-4H-pyrrolo[1,2-b]pyrazol-3-yl)-N-(2-methyl-5-(2-(2-methylpyrrolidin-1-yl)acetamido)pyridin-3-yl)pyrazolo[5,1-b]thiazole-7-carboxamide] | 8.64 | < 5.12 | 
CCCNCC(=O)Nc1cnc(C)c(NC(=O)c2cnn3cc(-c4cnn5c4OCCC5)sc23)c1 [Example 455, 2-(6,7-dihydro-5H-pyrazolo[5,1-b][1,3]oxazin-3-yl)-N-(2-methyl-5-(2-(propylamino)acetamido)pyridin-3-yl)pyrazolo[5,1-b]thiazole-7-carboxamide] |  | < 5.12 | 7.82
COCCn1cc(-c2cn3ncc(C(=O)Nc4cc(NC(=O)CCC5CCCN5C(C)C)cnc4C)c3s2)cn1 (stereo not drawn) [Example 463, N-(5-(3-(1-isopropylpyrrolidin-2-yl)propanamido)-2-methylpyridin-3-yl)-2-(1-(2-methoxyethyl)-1H-pyrazol-4-yl)pyrazolo[5,1-b]thiazole-7-carboxamide] | 6.11 | < 5.12 | 
Cc1ncc(NC(=O)CC2CN(C)C2)cc1NC(=O)c1cnn2cc(-c3cnn4c3CCC4)sc12 [Example 427, 2-(5,6-dihydro-4H-pyrrolo[1,2-b]pyrazol-3-yl)-N-(2-methyl-5-(2-(1-methylazetidin-3-yl)acetamido)pyridin-3-yl)pyrazolo[5,1-b]thiazole-7-carboxamide] | < 5.70 | < 5.12 | 
Cc1ncc(NC(=O)CN2CCCC2(C)C)cc1NC(=O)c1cnn2cc(-c3cccn(CCF)c3=O)sc12 [Example 449, N-(5-(2-(2,2-dimethylpyrrolidin-1-yl)acetamido)-2-methylpyridin-3-yl)-2-(1-(2-fluoroethyl)-2-oxo-1,2-dihydropyridin-3-yl)pyrazolo[5,1-b]thiazole-7-carboxamide] | 7.97 | < 5.12 | 
Cc1ncc(NC(=O)CN2CCCC2(C)C)cc1NC(=O)c1cnn2cc(-c3cn(C)nc3C)sc12 [Example 444, 2-(1,3-Dimethyl-1H-pyrazol-4-yl)-N-(5-(2-(2,2-dimethylpyrrolidin-1-yl)acetamido)-2-methylpyridin-3-yl)pyrazolo[5,1-b]thiazole-7-carboxamide] | 8.89 | < 5.12 | 
Cc1ncc(NC(=O)CN2CCC2)cc1NC(=O)c1cnn2cc(-c3cnn4c3OCCC4)sc12 [Example 412, N-(5-(2-(azetidin-1-yl)acetamido)-2-methylpyridin-3-yl)-2-(6,7-dihydro-5H-pyrazolo[5,1-b][1,3]oxazin-3-yl)pyrazolo[5,1-b]thiazole-7-carboxamide] | 7.11 | < 5.12 | 
Cc1ncc(NC(=O)CN2CC(C)(C)C2)cc1NC(=O)c1cnn2cc(-c3cccnc3OC(F)(F)F)sc12 [Example 437, N-(5-(2-(3,3-dimethylazetidin-1-yl)acetamido)-2-methylpyridin-3-yl)-2-(2-(trifluoromethoxy)pyridin-3-yl)pyrazolo[5,1-b]thiazole-7-carboxamide] | 8.22 | < 5.12 | 
Cc1ncc(NC(=O)CNCC2CC2)cc1NC(=O)c1cnn2cc(-c3cnn4c3CCC4)sc12 [Example 454, N-(5-(2-((cyclopropylmethyl)amino)acetamido)-2-methylpyridin-3-yl)-2-(5,6-dihydro-4H-pyrrolo[1,2-b]pyrazol-3-yl)pyrazolo[5,1-b]thiazole-7-carboxamide] | 7.90 | < 5.12 | 
Cc1ncc(C(=O)NCCN2CC(C)(C)C2)cc1NC(=O)c1cnn2cc(-c3cnn4c3CCC4)sc12 [Example 482, 2-(5,6-dihydro-4H-pyrrolo[1,2-b]pyrazol-3-yl)-N-(5-((2-(3,3-dimethylazetidin-1-yl)ethyl)carbamoyl)-2-methylpyridin-3-yl)pyrazolo[5,1-b]thiazole-7-carboxamide] | 7.54 | < 5.12 | 
COc1ccncc1-c1cn2ncc(C(=O)Nc3cc(NC(=O)CN4CC(C)(C)C4)cnc3C)c2s1 [Example 40, N-(5-(2-(3,3-dimethylazetidin-1-yl)acetamido)-2-methylpyridin-3-yl)-2-(4-methoxypyridin-3-yl)pyrazolo[5,1-b]thiazole-7-carboxamide] | 8.70 | 5.21 | 
COCCn1cc(-c2cn3ncc(C(=O)Nc4cc(NC(=O)CCN5CCCC5(C)C)cnc4C)c3s2)cn1 [Example 41, N-(5-(3-(2,2-dimethylpyrrolidin-1-yl)propanamido)-2-methylpyridin-3-yl)-2-(1-(2-methoxyethyl)-1H-pyrazol-4-yl)pyrazolo[5,1-b]thiazole-7-carboxamide] | 8.00 | < 5.12 | 
Cc1ncc(NC(=O)CN2CCCC23CCC3)cc1NC(=O)c1cnn2cc(-c3cnn4c3COCC4)sc12 [Example 417, N-(5-(2-(5-azaspiro[3.4]octan-5-yl)acetamido)-2-methylpyridin-3-yl)-2-(6,7-dihydro-4H-pyrazolo[5,1-c][1,4]oxazin-3-yl)pyrazolo[5,1-b]thiazole-7-carboxamide] |  | < 5.12 | 8.59
Cc1cc(C(=O)NCCN2CCCC2(C)C)sc1NC(=O)c1cnn2cc(-c3cccnc3)sc12 [Example 36, N-(5-((2-(2,2-dimethylpyrrolidin-1-yl)ethyl)carbamoyl)-3-methylthiophen-2-yl)-2-(pyridin-3-yl)pyrazolo[5,1-b]thiazole-7-carboxamide] | 8.05 | < 5.12 | 
COCCn1cc(-c2cn3ncc(C(=O)Nc4cc(NC(=O)C[C@@H]5CCCN5C(C)C)cnc4C)c3s2)cn1 [Example 451, (S)—N-(5-(2-(1-isopropylpyrrolidin-2-yl)acetamido)-2-methylpyridin-3-yl)-2-(1-(2-methoxyethyl)-1H-pyrazol-4-yl)pyrazolo[5,1-b]thiazole-7-carboxamide] | 7.17 | < 5.12 | 
Cc1ncc(NC(=O)CN2CC3(CCCCO3)C2)cc1NC(=O)c1cnn2cc(-c3cnn4c3CCC4)sc12 [Example 424, N-(5-(2-(5-oxa-2-azaspiro[3.5]nonan-2-yl)acetamido)-2-methylpyridin-3-yl)-2-(5,6-dihydro-4H-pyrrolo[1,2-b]pyrazol-3-yl)pyrazolo[5,1-b]thiazole-7-carboxamide] | 8.17 | < 5.12 | 

— patent publication US20240109917A1 (ACTELION PHARMACEUTICALS LTD, priority 2020, published 2024)
